Measurements taken from publication PMC6979384, “Characterization of the plant homeodomain (PHD) reader family for their histone tail interactions” (Epigenetics & Chromatin, 2020).

Assays:
Test in all cases: Histone peptide microarray
Assay type in all cases: binding, human
Conditions in all cases: sheet "Array Heatmap"; GST-tagged reader; histone peptide array, total n = 4
AIRE (PP) = system: AIRE (PP)
Method in brief: (§1)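 GST-tagged PHD finger readers were expressed, purified and applied at 0.5 μM to a microarray of 293 synthetic histone peptides carrying single or combinatorial PTMs, using an optimized protocol. Binding signals are averages with standard deviation from 4 replicates.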

BAZ2B = system: BAZ2B
Method in brief: as §1

BPTF (PB) = system: BPTF (PB)
Method in brief: as §1

CHD4 (PPCC) = system: CHD4 (PPCC)
Method in brief: as §1

CHD5 (PCC) = system: CHD5 (PCC)
Method in brief: as §1

CHD5 (PPCC) = system: CHD5 (PPCC)
Method in brief: as §1

DIDO1 = system: DIDO1
Method in brief: as §1

DPF2 (PPC2W2) = system: DPF2 (PPC2W2)
Method in brief: as §1

ING1 = system: ING1
Method in brief: as §1

ING2 = system: ING2
Method in brief: as §1

ING3 = system: ING3
Method in brief: as §1

ING4 = system: ING4
Method in brief: as §1

ING5 = system: ING5
Method in brief: as §1

KDM4C (TTP) = system: KDM4C (TTP)
Method in brief: as §1

KDM5A (1) = system: KDM5A (1)
Method in brief: as §1

KDM5A (3) = system: KDM5A (3)
Method in brief: as §1

KDM5B (1) = system: KDM5B (1)
Method in brief: as §1

KDM5B (3) = system: KDM5B (3)
Method in brief: as §1

KDM7A = system: KDM7A
Method in brief: as §1

MLL5 = system: MLL5
Method in brief: as §1

MORC3 (CW) = system: MORC3 (CW)
Method in brief: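 A peptide microarray holding 293 synthetic histone peptides with individual or combinatorial modifications was probed with each GST-PHD protein at 0.5 μM. Values represent mean intensity (±SD) from four replicates.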

PHF13 = system: PHF13
Method in brief: as §1

PHF21A = system: PHF21A
Method in brief: as §1

PHF23 = system: PHF23
Method in brief: as §1

PHF2 = system: PHF2
Method in brief: as §1

PHF8 = system: PHF8
Method in brief: as §1

PHRF1 (RP) = system: PHRF1 (RP)
Method in brief: as §1

RAG2 = system: RAG2
Method in brief: as §1

SP140L = system: SP140L
Method in brief: as §1

TAF3 = system: TAF3
Method in brief: as §1

TRIM66 (PB) = system: TRIM66 (PB)
Method in brief: as §1

Substance | Array Heatmap signal, AIRE (PP) (AIRE (PP)) | Array Heatmap signal, BAZ2B (BAZ2B) | Array Heatmap signal, BPTF (PB) (BPTF (PB)) | Array Heatmap signal, CHD4 (PPCC) (CHD4 (PPCC)) | Array Heatmap signal, CHD5 (PCC) (CHD5 (PCC)) | Array Heatmap signal, CHD5 (PPCC) (CHD5 (PPCC)) | Array Heatmap signal, DIDO1 (DIDO1) | Array Heatmap signal, DPF2 (PPC2W2) (DPF2 (PPC2W2)) | Array Heatmap signal, ING1 (ING1) | Array Heatmap signal, ING2 (ING2) | Array Heatmap signal, ING3 (ING3) | Array Heatmap signal, ING4 (ING4) | Array Heatmap signal, ING5 (ING5) | Array Heatmap signal, KDM4C (TTP) (KDM4C (TTP)) | Array Heatmap signal, KDM5A (1) (KDM5A (1)) | Array Heatmap signal, KDM5A (3) (KDM5A (3)) | Array Heatmap signal, KDM5B (1) (KDM5B (1)) | Array Heatmap signal, KDM5B (3) (KDM5B (3)) | Array Heatmap signal, KDM7A (KDM7A) | Array Heatmap signal, MLL5 (MLL5) | also measured
H3R8me2a + K9me3: H3 1-20 | 0.4401 | 0.4376 | 0.3424 | 0.5686 | 0.7117 | 0.5418 | 0.7155 | 0.714 | 0.57 | 0.595 | 0.4657 | 0.4504 | 0.3474 | 0.4618 | 0.4583 | 0.5315 | 0.64 | 0.5093 | 0.3302 | 0.5407 | Array Heatmap signal, MORC3 (CW) (MORC3 (CW)): 0.4005; Array Heatmap signal, PHF13 (PHF13): 0.5734; Array Heatmap signal, PHF21A (PHF21A): 0.4463; Array Heatmap signal, PHF23 (PHF23): 0.5164; Array Heatmap signal, PHF2 (PHF2): 0.5753; Array Heatmap signal, PHF8 (PHF8): 0.3554; Array Heatmap signal, PHRF1 (RP) (PHRF1 (RP)): 0.6376; Array Heatmap signal, RAG2 (RAG2): 0.2449; Array Heatmap signal, SP140L (SP140L): 0.3611; Array Heatmap signal, TAF3 (TAF3): 0.2595; Array Heatmap signal, TRIM66 (PB) (TRIM66 (PB)): 0.5712
H3R8me2a: H3 1-20 [Peptide H3R8me2a] | 0.5572 | 0.437 | 0.3288 | 0.5373 | 0.7162 | 0.5334 | 0.6465 | 0.6583 | 0.4976 | 0.6044 | 0.4474 | 0.4314 | 0.3481 | 0.4962 | 0.4494 | 0.6079 | 0.6786 | 0.4831 | 0.3419 | 0.5074 | Array Heatmap signal, MORC3 (CW) (MORC3 (CW)): 0.4558; Array Heatmap signal, PHF13 (PHF13): 0.5768; Array Heatmap signal, PHF21A (PHF21A): 0.4488; Array Heatmap signal, PHF23 (PHF23): 0.5221; Array Heatmap signal, PHF2 (PHF2): 0.4368; Array Heatmap signal, PHF8 (PHF8): 0.3345; Array Heatmap signal, PHRF1 (RP) (PHRF1 (RP)): 0.6824; Array Heatmap signal, RAG2 (RAG2): 0.2386; Array Heatmap signal, SP140L (SP140L): 0.3504; Array Heatmap signal, TAF3 (TAF3): 0.2542; Array Heatmap signal, TRIM66 (PB) (TRIM66 (PB)): 0.5681
